Results on 18 compounds are retold here after ChEMBL document CHEMBL1153168, “3D QSAR studies on 3,4-dihydroquinazolines as T-type calcium channel blocker by comparative molecular similarity indices analysis (CoMSIA)” (Bioorg Med Chem Lett, 2010).

SMILES strings stand for the structures.

Sequence of Voltage-dependent T-type calcium channel subunit alpha-1G (O43497 whole entry): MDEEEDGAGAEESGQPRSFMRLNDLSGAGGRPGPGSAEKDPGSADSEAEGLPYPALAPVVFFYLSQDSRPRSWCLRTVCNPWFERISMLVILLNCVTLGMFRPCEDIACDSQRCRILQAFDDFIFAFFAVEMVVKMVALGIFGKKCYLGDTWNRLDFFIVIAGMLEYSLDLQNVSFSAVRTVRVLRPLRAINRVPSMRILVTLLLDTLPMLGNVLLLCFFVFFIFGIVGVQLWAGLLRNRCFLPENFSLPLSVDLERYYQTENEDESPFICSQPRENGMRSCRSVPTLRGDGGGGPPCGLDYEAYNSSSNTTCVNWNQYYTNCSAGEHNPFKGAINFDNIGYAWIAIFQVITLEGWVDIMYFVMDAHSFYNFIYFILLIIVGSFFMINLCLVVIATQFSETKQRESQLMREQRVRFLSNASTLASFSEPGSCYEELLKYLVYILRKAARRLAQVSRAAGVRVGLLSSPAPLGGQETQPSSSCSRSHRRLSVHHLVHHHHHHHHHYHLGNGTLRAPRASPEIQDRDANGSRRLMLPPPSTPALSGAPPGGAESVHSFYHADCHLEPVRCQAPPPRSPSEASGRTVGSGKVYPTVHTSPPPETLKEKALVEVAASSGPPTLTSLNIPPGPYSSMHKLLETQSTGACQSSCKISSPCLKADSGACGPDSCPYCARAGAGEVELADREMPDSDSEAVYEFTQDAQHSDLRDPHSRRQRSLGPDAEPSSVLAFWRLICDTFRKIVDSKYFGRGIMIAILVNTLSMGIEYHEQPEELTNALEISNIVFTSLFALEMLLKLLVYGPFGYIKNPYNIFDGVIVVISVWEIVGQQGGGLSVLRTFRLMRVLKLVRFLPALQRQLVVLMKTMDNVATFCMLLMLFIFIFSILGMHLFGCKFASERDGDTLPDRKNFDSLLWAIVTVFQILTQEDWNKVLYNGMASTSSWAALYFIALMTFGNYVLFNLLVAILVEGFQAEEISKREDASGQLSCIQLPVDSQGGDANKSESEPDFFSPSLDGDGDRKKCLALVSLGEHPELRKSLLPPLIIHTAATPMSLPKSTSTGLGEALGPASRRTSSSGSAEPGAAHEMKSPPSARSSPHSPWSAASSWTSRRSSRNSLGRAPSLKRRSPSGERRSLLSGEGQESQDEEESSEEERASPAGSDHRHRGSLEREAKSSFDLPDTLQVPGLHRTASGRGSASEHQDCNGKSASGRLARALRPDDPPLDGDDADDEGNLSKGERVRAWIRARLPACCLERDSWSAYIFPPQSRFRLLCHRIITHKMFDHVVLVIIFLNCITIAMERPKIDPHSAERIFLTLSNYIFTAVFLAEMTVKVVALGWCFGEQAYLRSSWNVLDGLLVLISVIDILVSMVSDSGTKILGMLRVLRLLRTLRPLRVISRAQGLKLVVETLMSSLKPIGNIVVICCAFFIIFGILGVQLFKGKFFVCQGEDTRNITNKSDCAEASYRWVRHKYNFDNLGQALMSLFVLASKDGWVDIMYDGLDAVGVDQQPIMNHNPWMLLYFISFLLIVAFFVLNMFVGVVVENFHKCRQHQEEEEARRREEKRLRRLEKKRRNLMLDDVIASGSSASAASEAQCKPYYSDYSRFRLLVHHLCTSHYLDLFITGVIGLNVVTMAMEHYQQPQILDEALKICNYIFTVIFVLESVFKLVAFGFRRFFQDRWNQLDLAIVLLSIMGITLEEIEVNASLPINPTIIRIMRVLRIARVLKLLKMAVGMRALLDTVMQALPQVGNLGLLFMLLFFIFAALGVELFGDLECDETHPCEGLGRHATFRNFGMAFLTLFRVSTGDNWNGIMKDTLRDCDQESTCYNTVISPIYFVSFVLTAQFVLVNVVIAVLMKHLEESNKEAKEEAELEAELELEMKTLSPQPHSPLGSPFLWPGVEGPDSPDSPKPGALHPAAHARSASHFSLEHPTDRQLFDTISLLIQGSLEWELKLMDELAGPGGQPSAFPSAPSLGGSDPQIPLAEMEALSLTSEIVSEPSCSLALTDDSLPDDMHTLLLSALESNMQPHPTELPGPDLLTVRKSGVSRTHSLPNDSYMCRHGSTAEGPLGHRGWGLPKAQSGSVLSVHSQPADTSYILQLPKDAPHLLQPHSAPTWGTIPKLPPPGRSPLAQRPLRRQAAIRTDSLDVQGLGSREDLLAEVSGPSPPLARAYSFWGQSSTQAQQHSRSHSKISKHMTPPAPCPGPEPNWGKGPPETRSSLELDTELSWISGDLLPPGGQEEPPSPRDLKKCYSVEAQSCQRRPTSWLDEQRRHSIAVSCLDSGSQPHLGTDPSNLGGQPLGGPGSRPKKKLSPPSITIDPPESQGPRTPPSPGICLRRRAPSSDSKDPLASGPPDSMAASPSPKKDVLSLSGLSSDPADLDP

The assay has as its target Voltage-dependent T-type calcium channel subunit alpha-1G (Homo sapiens, UniProt O43497). Kind of assay: Inhibition of human T-type calcium channel alpha1G in HEK293 cells. The assay is classed as cell-based.
Broadly, the IC50 is the concentration that gives 50% inhibition. `Nc1ccc(CNC(=O)CC2c3ccccc3N=C(N3CCCCC3)N2c2ccccc2)cc1` (stereo not drawn): the IC50 was 13000 nM.

`CCN1C(N(C)C)=Nc2ccccc2C1CC(=O)NCc1ccc(NS(=O)(=O)c2ccc(C)cc2)cc1` (stereo not drawn): the IC50 is 1120 nM.

As for `CCN1C(N(C)C)=Nc2ccccc2C1CC(=O)NCc1ccc(NS(=O)(=O)c2ccc(F)cc2)cc1` (stereo not drawn), the IC50 was 4100 nM.

For the compound `O=C(CC1c2ccccc2N=C(N2CCCCC2)N1c1ccccc1)NCc1ccc([N+](=O)[O-])cc1` (stereo not drawn), the IC50 was 2340 nM.

For the compound `CCN1C(N2CCCCC2)=Nc2ccccc2C1CC(=O)NCc1ccccc1` (stereo not drawn), the IC50 was 4580 nM.

Take `CCN1C(N(C)C)=Nc2ccccc2C1CC(=O)NCc1ccccc1` (stereo not drawn): the IC50 is 24200 nM.

As for `COC(=O)CC1c2ccccc2N=C(Nc2ccccc2)N1CCCCCNC(=O)OC(C)(C)C` (stereo not drawn), the IC50 was 2270 nM.

For `CCN1C(N2CCCCC2)=Nc2ccccc2C1CC(=O)NCc1ccc([N+](=O)[O-])cc1` (stereo not drawn), the IC50 is 869 nM.

Take `COC(=O)CC1c2ccccc2N=C(Nc2ccccc2)N1CCCCCN` (stereo not drawn): the IC50 is 9160 nM.

For the compound `NCCCCCNC1=Nc2ccccc2C(CC(=O)NCc2ccccc2)N1c1ccccc1` (stereo not drawn), the IC50 was 3130 nM.

Take `CCN1C(N(C)C)=Nc2ccccc2C1CC(=O)NCc1ccc([N+](=O)[O-])cc1` (stereo not drawn): the IC50 was 2170 nM.

On to `CC(C)(C)OC(=O)NCCCCCN1C(Nc2ccccc2)=Nc2ccccc2C1CC(=O)NCc1ccccc1` (stereo not drawn), for which the IC50 is 1200 nM.

As to `COC(=O)CC1c2ccccc2N=C(NCCCCCN)N1c1ccccc1` (stereo not drawn), the IC50 was 1840 nM.

In the case of `COC(=O)CC1c2ccccc2N=C(NCCCCCNC(=O)OC(C)(C)C)N1c1ccccc1` (stereo not drawn), the IC50 is 2020 nM.

As to `CN(C)C1=Nc2ccccc2C(CC(=O)NCc2ccc(NS(=O)(=O)c3ccc(F)cc3)cc2)N1c1ccccc1` (stereo not drawn), the IC50 is 430 nM.

For the compound `O=C(CC1c2ccccc2N=C(N2CCCCC2)N1c1ccccc1)NS(=O)(=O)c1cccs1` (stereo not drawn), the IC50 is 1010 nM.

As to `CCN1C(N(C)C)=Nc2cc(N)ccc2C1CC(=O)NCc1ccc(N)cc1` (stereo not drawn), the IC50 is 12700 nM.

Turning to `NCCCCCN1C(Nc2ccccc2)=Nc2ccccc2C1CC(=O)NCc1ccccc1` (stereo not drawn), the half-inhibitory concentration (IC50) was 4540 nM.
